Like-named read-outs stand apart in the source and are kept apart here.
Columns and labels:
[1] = target: T1, fusion protein Tel/PDGF-Rβ (BaF3 Tel/PDGF cells) (Homo sapiens, UniProt P09619); assay: Inhibition of PDGF-Rβ tyrosine kinase activity: proliferation of BaF3 Tel/PDGF cells (CellTiter-Glo, 72 h); assay type: cell-based, murine; settings: 72 hours incubation, read-out: IC50 (concentration that inhibits 50% of the proliferation of the BaF3 Tel/PDGF cells)
T1 construct: the transmembrane and intracellular part of the PDGF-Rβ receptor; N-terminal part of the Tel transcription factor (ETV6); expressed in transfected cells; host or cells: murine haematopoietic cell line BaF/3; the other entry of the earlier key: ETV6 (P41212, Transcription factor ETV6)
T1 sequence (P09619 with tags, fused parts or gaps): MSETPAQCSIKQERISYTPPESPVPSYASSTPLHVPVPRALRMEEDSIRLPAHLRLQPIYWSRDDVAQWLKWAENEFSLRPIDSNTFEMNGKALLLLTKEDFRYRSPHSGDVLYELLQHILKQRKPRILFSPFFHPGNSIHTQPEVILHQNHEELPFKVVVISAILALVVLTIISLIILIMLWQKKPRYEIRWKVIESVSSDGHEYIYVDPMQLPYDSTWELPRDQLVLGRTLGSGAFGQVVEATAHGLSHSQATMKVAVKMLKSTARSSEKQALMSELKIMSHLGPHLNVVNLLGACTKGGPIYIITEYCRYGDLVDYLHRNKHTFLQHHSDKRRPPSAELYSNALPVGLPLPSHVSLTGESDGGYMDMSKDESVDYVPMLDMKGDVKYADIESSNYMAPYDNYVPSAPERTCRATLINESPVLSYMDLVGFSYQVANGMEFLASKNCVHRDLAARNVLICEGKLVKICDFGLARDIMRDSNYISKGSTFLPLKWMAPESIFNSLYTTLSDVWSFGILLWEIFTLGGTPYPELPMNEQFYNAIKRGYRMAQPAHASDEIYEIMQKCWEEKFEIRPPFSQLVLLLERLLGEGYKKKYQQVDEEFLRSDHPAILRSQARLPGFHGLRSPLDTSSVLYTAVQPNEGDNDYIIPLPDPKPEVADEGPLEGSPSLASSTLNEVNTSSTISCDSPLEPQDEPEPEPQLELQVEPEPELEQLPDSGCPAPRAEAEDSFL
Description: Measurement of Inhibition of the Tyrosine Kinase Activity of the PDGF Beta (PDGF-Rβ) (Baf-3 tel/PDGFIRβ) Receptor:
This test consists in evaluating the effects of the compounds on the tyrosine kinase activity of the PDGF beta receptor.
The inhibitory effect of the compounds according to the invention towards the tyrosine kinase activity of the PDGF-R receptor was evaluated on the murine haematopoietic cell line BaF/3 transfected with a plasmid coding for the fusion protein Tel/PDGF-Rβ. This fusion protein is found in chronic myelomonocytic myeloid leukaemias (CMML). It comprises the N-terminal part of the Tel transcription factor and the transmembrane and intracellular part of the PDGF-Rβ receptor. This fusion protein is present in dimerized form (presence of an oligomerization domain in the N-terminal part of Tel) and, as a result, leads to constitutive activity of the kinase domain of PDGF-Rβ. This line BaF3 Tel/PDGF has been described in the literature several times and especially, in detailed manner, in the article by M. Carroll et al., PNAS, 1996, 93, 14845-14850.
The BaF3 Tel/PDGF cells are washed with phosphate buffer and inoculated in 96-well plates, at a density of 5×10^4 cells/ml ([…]), in RPMI 1640 containing 10% FCS, in the presence or absence of the test compounds. After incubation for 72 hours, the viable cells are quantified by measuring the cellular ATP by means of the CellTiter-Glo® kit (Promega, Cat G7571). The cells are treated according to the instructions given by the kit manufacturer, and the luminescence is measured using a Luminoskan (Ascent, Labsystem) with the following parameters: measurement: single; integration time: 1000 ms, lag time: 5 s.
It is thus seen that the compounds according to the invention have inhibitory activity on the tyrosine kinase activity of PDGF-Rβ. This activity is given by the concentration that inhibits 50% of the proliferation of the BaF3 Tel/PDGF cells (IC50).

[2] = target: T2, fusion protein Tel/PDGF-R (PDGF-Rβ kinase domain) in HEK cells (Homo sapiens, UniProt P09619); assay: Ex vivo activity: plasma of orally treated mice tested on PDGF-R autophosphorylation in HEK Tel/PDGF-R cells (ELISA); design: species or system female Balb/c mice; settings: HEK293, mouse, po, 30 mg/kg po, read-out: % inhibition of autophosphorylation of PDGFR tyrosine kinase in HEK cells
T2 construct: the transmembrane and intracellular part of the PDGF-Rβ receptor; N-terminal part of the Tel transcription factor (ETV6); expressed in transfected cells; host or cells: HEK cells (transient transfection); the other entry of the earlier key: ETV6 (P41212, Transcription factor ETV6)
T2 sequence (P09619 with tags, fused parts or gaps): as above
Description: Ex vivo activity of the compounds of the invention was measured. These compounds are thus administered orally to female Balb/c mice at a dose of 10, 30 or 100 mg/kg in suspension or in solution in a vehicle such as methylcellulose/Tween and the inhibition of the tyrosine kinase activity is measured in vitro in a cell test, using plasma collected at 15 minutes, 1 hour and 4 hours.
1) Protocol for Administration of the Products to the Mice
The products are prepared in a mortar with 0.5% Tween 80 and 0.6% methylcellulose qs final volume. Depending on the case, preparations of different vehicles may be used: water, mixture of labrasol solutol 5% glucose-water. The suspended or dissolved products are administered by gavage (10 ml/kg) to female Balb/c mice 8 to 15 weeks old.
The animals are then collected at the time given by the protocol (15 min, 1 hour, 4 hours, 16 hours).
The animals are anaesthetized by intraperitoneal injection (10 ml/kg) of a ketamine (0.1 g/kg)-xylazine (20 mg/kg) mixture. […] The blood sample is collected from the vein or the artery using a dry syringe and needle. The blood is immediately transferred into heparin lithium tubes (BD microtainer). Centrifugation for 3 minutes at 12 000 rpm allows recovery of the plasma, on which the biochemical test may be performed after storage by freezing at −20° C.
2) Preparation of the HEK Tel/PDGF-R Cells and Measurement of the Phosphorylation of PDGF-R
In order to detect the ex vivo activity of the products using the mouse plasmas, the HEK cells are transiently transfected beforehand with an expression vector coding for the fusion protein Tel/PDGF-R (fusion protein described previously). After 24 hours of transfection, the cells are deprived of serum overnight and then incubated for 30 minutes with the animal plasmas treated with the products of the invention. The cells are then lysed in RIPA buffer, and detection of the phosphorylation of PDGF-Rβ is then performed via the ELISA technique, using a commercial kit (R&D Systems, DYC1767). The results are expressed as a percentage of inhibition of the autophosphorylation.
In this test of measurement of the ex vivo activity, the effect of the compounds of the invention is quantified by the percentage of inhibition of phosphorylation of the kinase domain of the PDGF-Rβ receptor in HEK cells, induced by the inhibitory activity of the product present in the plasma of the treated animals, as described in the following table: […]

| SMILES | IC50 [1] [nM] | inhibition at 30 mg/kg ([2]; plasma collected at 15 min) [%] | inhibition at 30 mg/kg ([2]; plasma collected at 1 h) [%] | inhibition at 30 mg/kg ([2]; plasma collected at 4 h) [%] |
| --- | --- | --- | --- | --- |
| CCN1CC(F)(F)C[C@H]1CNC(=O)Cc1ccc(-c2ccc3c(=O)c(C(=O)NC)c(N)n(CC)c3n2)cc1 [compound 24, 2-amino-1-ethyl-7-{4-[2-({[(2S)-1-ethyl-4,4-difluoropyrrolidin-2-yl]methyl}-amino)-2-oxoethyl]phenyl}-N-methyl-4-oxo-1,4-dihydro-1,8-naphthyridine-3-carboxamide] | 2 | 85 | 57 | 74 |
| CCn1c(N)c(C(=O)NC)c(=O)c2ccc(-c3ccc(CC(=O)NCC4COCCN4C4CC4)cc3)nc21 (centres unmarked) [compound 33, 2-amino-7-[4-(2-{[(4-cyclopropylmorpholin-3-yl)methyl]amino}-2-oxoethyl)phenyl]-1-ethyl-N-methyl-4-oxo-1,4-dihydro-1,8-naphthyridine-3-carboxamide] | 4.7 | 80 | 82 | 75 |
